Measurements published in US7915291B2, “Hepatitis C virus inhibitors” (Bristol-Myers Squibb Company, priority 2002, dated 2011).
Read-outs that look alike come from different tables or passages of the source.

Legend:
[1] = target: HCV NS3/4A protease complex, BMS strain (UniProt P27958, C1454S/C1711G, species not given/STRAIN_BMS); test: Recombinant HCV NS3/4A protease complex FRET peptide assay (BMS strain); format: biochemical, HCV genotype 1a
Excerpt: Recombinant HCV NS3/4A Protease Complex FRET Peptide Assay
The purpose of this in vitro assay was to measure the inhibition of HCV NS3 protease complexes, derived from the BMS, H77C or J416S strains, as described below, by compounds of the present invention.
Serum from an HCV-infected patient was obtained from Dr. T. Wright, San Francisco Hospital. An engineered full-length cDNA (compliment deoxyribonucleic acid) template of the HCV genome (BMS strain) was constructed from DNA fragments obtained by reverse transcription-PCR(RT-PCR) of serum RNA (ribonucleic acid) and using primers selected on the basis of homology between other genotype 1a strains.
The BMS, H77C and J4L6S strains were used for production of recombinant NS3/4A protease complexes. […] Briefly, a three-lysine solubilizing tail was added at the 3′-end of the NS4A coding region. […] Briefly, NS3/4A expression was induced with 0.5 mM Isopropyl β-D-1-thiogalactopyranoside (IPTG) for 22 hr at 20° C. […] The crude protein extract was loaded on a Nickel—Nitrilotriacetic acid (Ni-NTA) column pre-equilibrated with buffer B (25 mM HEPES, pH8.0, 20% glycerol, 500 mM NaCl, 0.5% Triton-X100, 15 mM imidazole, 5 mM βME). The sample was loaded at a flow rate of 1 mL/min. The column was washed with 15 column volumes of buffer C (same as buffer B except with 0.2% Triton-X100). The protein was eluted with 5 column volumes of buffer D (same as buffer C except with 200 mM Imidazole).
NS3/4A protease complex-containing fractions were pooled and loaded on a desalting column Superdex-S200 pre-equilibrated with buffer D (25 mM HEPES, pH7.5, 20% glycerol, 300 mM NaCl, 0.2% Triton-X100, 10 mM βME). Sample was loaded at a flow rate of 1 mL/min. NS3/4A protease complex-containing fractions were pooled and concentrated to approximately 0.5 mg/ml.
The enzyme was stored at −80° C., thawed on ice and diluted prior to use in assay buffer. […] The sequence of this peptide is loosely based on the NS4A/NS4B natural cleavage site except there is an ester linkage rather than an amide bond at the cleavage site. The peptide substrate was incubated with one of the three recombinant NS3/4A complexes, in the absence or presence of a compound of the present invention, and the formation of fluorescent reaction product was followed in real time using a Cytofluor Series 4000.
The reagents were as follow: HEPES and Glycerol (Ultrapure) were obtained from GIBCO-BRL. Dimethyl Sulfoxide (DMSO) was obtained from Sigma. β-Mercaptoethanol was obtained from Bio Rad.
Substrate: 2 μM final concentration (from a 2 mM stock solution in DMSO stored at −20° C.). HCV NS3/4A type 1a (1b), 2-3 nM final concentration (from a 5 μM stock solution in 25 mM HEPES, pH7.5, 20% glycerol, 300 mM NaCl, 0.2% Triton-X100, 10 mM βME).
The assay was performed in a 96-well polystyrene black plate from Falcon. Each well contained 25 μl NS3/4A protease complex in assay buffer, 50 μof a compound of the present invention in 10% DMSO/assay buffer and 25 μl substrate in assay buffer. A control (no compound) was also prepared on the same assay plate. The enzyme complex was mixed with compound or control solution for 1 min before initiating the enzymatic reaction by the addition of substrate. The assay plate was read immediately using the Cytofluor Series 4000 (Perspective Biosystems). The instrument was set to read an […] at 25° C. Reactions were generally followed for approximately 15 minutes.
The percent inhibition was calculated with the following equation: 100−[(δFinh/δFcon)×100] where δF is the change in fluorescence over the linear range of the curve.

[2] = system: HCV replicon in Huh7 cells; test: HCV replicon cell-based assay; design: species or system HCV strain 1B; settings: Hepatitis C virus
Excerpt: HCV Replicon Cell-based Assay
This system enabled us to evaluate the effects of our HCV Protease compounds on HCV RNA replication. Briefly, using the HCV strain 1B sequence described in the Lohmann paper (Assession number:AJ238799), an HCV cDNA was generated encoding the 5′ internal ribosome entry site (IRES), the neomycin resistance gene, the EMCV (encephalomyocarditis virus)-IRES and the HCV nonstructural proteins, NS3-NS5B, and 3′ non-translated region (NTR). In vitro transcripts of the cDNA were transfected into the human hepatoma cell line, Huh7. […] Resulting cell lines were characterized for positive and negative strand RNA production and protein production over time.
Huh7 cells, constitutively expressing the HCV replicon, were grown in Dulbecco's Modified Eagle Media (DMEM) containing 10% Fetal calf serum (FCS) and 1 mg/ml G418 (Gibco-BRL). Cells were seeded the night before (1.5×10^4 cells/well) in 96-well tissue-culture sterile plates. Compound and no compound controls were prepared in DMEM containing 4% FCS, 1:100 Penicillin/Streptomysin, 1:100 L-glutamine and 5% DMSO in the dilution plate (0.5% DMSO final concentration in the assay). Compound/DMSO mixes were added to the cells and incubated for 4 days at 37° C. After 4 days, plates were rinsed thoroughly with Phosphate-Buffered Saline (PBS) (3 times 150 μl). The cells were lysed with 25 μl of a lysis assay reagent containing the FRET peptide (RET S1, as described for the in vitro enzyme assay). The lysis assay reagent was made from 5× cell Luciferase cell culture lysis reagent(Promega #E153A) diluted to 1× with distilled water, NaCl added to 150 mM final, the FRET peptide diluted to 10 μM final from a 2 mM stock in 100% DMSO. The plate was then placed into the Cytofluor 4000 instrument which had been set to 340 nm excitation/490 emission, automatic mode for 21 cycles and the plate read in a kinetic mode. EC50 determinations were carried out as described for the IC50 determinations.
Cells were lyzed using the Rneasy kit (Qiagen). […] All primers were designed with ABI Prism 7700 software and obtained from Biosearch Technologies, Novato, Calif. Samples containing known concentrations of HCV RNA transcript were run as standards. Using the following cycling protocol (50° C., 30 min; 95° C., 5 min; 40 cycles of 95° C., 15 sec, 60° C., 1 min), HCV RNA expression was quantitated as described in the Perkin Elmer manual using the ABI Prism 7700 Sequence Detector.

[3] = NS3/4A BMS strain; read-out: IC50 range
[4] = Huh-7, HCV replicon, Huh7 cells, read-out: EC50 range
[5] = read-out: IC50 range; NS3/4A BMS strain

SMILES | IC50 [1, 3] [nM] | EC50 [2, 4] [nM] | IC50 [1, 5] [nM] | EC50 ([2]; Huh-7, read-out: EC50 range) [nM]
C=C[C@@H]1C[C@]1(NC(=O)[C@@H]1C[C@@H](Oc2nccc3cc(OC)ccc23)CN1C(=O)[C@@H](NC(=O)N[C@H](C(=O)OCc1ccccc1)C(C)C)C(C)(C)C)C(=O)NS(=O)(=O)C1CC1 [Compound 150] | < 100 | < 100 | – | –
C=C[C@@H]1C[C@]1(NC(=O)[C@@H]1C[C@@H](Oc2cc(-c3csc(NC(C)C)n3)nc3cc(OC)ccc23)CN1C(=O)[C@@H](NC(=O)OC(C)(C)C)C(C)(C)C)C(=O)NS(=O)(=O)C1CC1 [Compound 370] | – | 1000 to 10000 | 100 to 1000 | –
C=CC1C[C@]1(NC(=O)[C@@H]1C[C@@H](Oc2cnc3ccccc3n2)CN1C(=O)[C@@H](NC(=O)OC(C)(C)C)C(C)(C)C)C(=O)NS(=O)(=O)C1CC1 (stereo partly drawn) [Compound 237, BOCNH-P3(L-t-BuGly)-P2[(4R)-(quinoxaline-2-oxo)-S-proline]-P1(1R,2S VinylAcca)-CONHSO2Cyclopropane] | < 100 | 100 to 1000 | – | –
C=C[C@@H]1C[C@]1(NC(=O)[C@@H]1C[C@@H](Oc2nccc3ccc(Cl)cc23)CN1C(=O)[C@@H](NC(=O)OC(C)(C)C)C(C)(C)C)C(=O)NS(=O)(=O)C1CC1 [Compound 258] | < 100 | < 100 | – | –
C=CC1CC1(NC(=O)C1CC(Oc2nc(C3CC3)nc3cc(OC)c(OC)cc23)CN1C(=O)[C@@H](NC(=O)OC(C)(C)C)C(C)(C)C)C(=O)NS(=O)(=O)C(C)C (mixture of isomers) [Compound 46] | 100 to 1000 | 1000 to 10000 | – | –
C=C[C@@H]1C[C@]1(NC(=O)[C@@H]1C[C@@H](Oc2cccc(-c3ccoc3)n2)CN1C(=O)[C@@H](NC(=O)OC(C)(C)C)C(C)(C)C)C(=O)NS(=O)(=O)C1CC1 [Compound 435] | < 100 | 100 to 1000 | – | –
C=C[C@@H]1C[C@]1(NC(=O)[C@@H]1C[C@@H](Oc2ccnc3cc(OC)ccc23)CN1C(=O)[C@@H](NC(=O)OC(C)(C)C)C(C)(C)C)C(=O)NS(=O)(=O)C1CCC1 [Compound 374, BOCNH-P3(L-t -BuGly)-P2[(4R)-(7-methoxyquinoline-4-oxo)-S-proline]-P1(1R,2S Vinyl Acca)-CONHSO2-Cyclobutane] | < 100 | 100 to 1000 | – | –
C=CC1CC1(NC(=O)[C@@H]1C[C@@H](Oc2cc(C(F)(F)F)nc3ccc(F)cc23)CN1C(=O)[C@@H](NC(=O)OC(C)(C)C)C(C)(C)C)C(=O)NS(=O)(=O)C1CC1 (some centres unmarked) [Compound 450] | < 100 | 100 to 1000 | – | –
C=C[C@@H]1C[C@]1(NC(=O)[C@@H]1C[C@@H](Oc2cc(-c3ccccc3)nc(-c3ccccc3)c2)CN1C(=O)[C@@H](NC(=O)OC(C)(C)C)C(C)(C)C)C(=O)NS(=O)(=O)C1CC1 [Compound 415] | < 100 | < 100 | – | –
C=CC1C[C@]1(NC(=O)[C@@H]1C[C@@H](Oc2ccc3c(Cl)nccc3c2)CN1C(=O)[C@@H](NC(=O)OC(C)(C)C)C(C)(C)C)C(=O)NS(=O)(=O)C1CC1 (stereo partly drawn) [Compound 188, BOCNH-P3(L-tert-BuGly)-P2[(4R)-(1-chloro isoquinolin-6-oxo)-S -proline]-P1(1R,2S Vinyl Acca)-CONHSO2-Cyclopropane] | < 100 | 100 to 1000 | – | –
C=C[C@@H]1C[C@]1(NC(=O)[C@@H]1C[C@@H](Oc2nccc3cc(OC)ccc23)CN1C(=O)[C@@H](NC(=O)OC(C)(C)C)[C@H](C)OC(C)(C)C)C(=O)NS(=O)(=O)C1CC1 [Compound 97] | < 100 | < 100 | – | –
C=C[C@@H]1C[C@]1(NC(=O)[C@@H]1C[C@@H](Oc2nccc3c(OC)cccc23)CN1C(=O)[C@@H](NC(=O)OC(C)(C)C)C(C)(C)C)C(=O)NS(=O)(=O)C1CC1 [Compound 253] | < 100 | < 100 | – | –
C=C[C@@H]1C[C@]1(NC(=O)[C@@H]1CC(Oc2nccc3cc(OC)ccc23)CN1C(=O)[C@@H](NC(=O)N(CC)CC)C(C)(C)C)C(=O)NS(=O)(=O)C1CC1 (some centres unmarked) [Compound 79] | < 100 | 100 to 1000 | – | –
C=CC1C[C@]1(NC(=O)[C@@H]1C[C@@H](Oc2nc(-c3ccccn3)cc3cc(OC)ccc23)CN1C(=O)[C@@H](NC(=O)OC(C)(C)C)C(C)(C)C)C(=O)NS(=O)(=O)C1CC1 (some centres unmarked) [Compound 320] | < 100 | < 100 | – | –
C=CC1C[C@]1(NC(=O)[C@@H]1C[C@@H](Oc2nnc(-n3ccnc3)c3ccccc23)CN1C(=O)[C@@H](N)C(C)(C)C)C(=O)NS(=O)(=O)C1CC1 (stereo partly drawn) [Compound 197, NH2—P3(L-tert-BuGly)-P2[(4R)-(4-(imidazo-1-yl)phthalazine-1-oxo)-S-proline]-P1(1R,2S Vinyl Acca)-CONHSO2-Cyclopropane] | 100 to 1000 | 10000 to 100000 | – | –
C=C[C@@H]1C[C@]1(NC(=O)[C@@H]1C[C@@H](Oc2nccc3cc(OC)ccc23)CN1C(=O)[C@@H](NC(=O)NCC(=O)OC)C(C)(C)C)C(=O)NS(=O)(=O)C1CC1 [Compound 144] | < 100 | 100 to 1000 | – | –
C=CC1CC1(NC(=O)C1CC(Oc2nc(Br)c(OCOCC[Si](C)(C)C)c3ccccc23)CN1C(=O)C(NC(=O)OC(C)(C)C)C(C)(C)C)C(=O)NS(=O)(=O)C1CC1 (centres unmarked) [Compound 225] | < 100 | 100 to 1000 | – | –
C=CC1C[C@]1(NC(=O)[C@@H]1C[C@@H](Oc2nc3c(c4ccccc24)CCC3)CN1C(=O)[C@@H](NC(=O)OC(C)(C)C)C(C)(C)C)C(=O)NS(=O)(=O)C1CC1 (stereo partly drawn) [Compound 215, BOCNH-P3(L-t-BuGly)-P2[(1R)-(2,3-dihydro-1 H-4aza -cyclopenta[α]naphthalen-5-yloxy)-S-proline]-P1(1R,2S VinylAcca)-CONHSO2Cyclopropane] | < 100 | < 100 | – | –
C=C[C@@H]1C[C@]1(NC(=O)[C@@H]1C[C@@H](Oc2nc(-c3ccccc3)cc3cc(OC)ccc23)CN1C(=O)[C@@H](NC(=O)OC(C)(C)C)C(C)(C)C)C(=O)NS(=O)(=O)C1CC1 [Compound 36] | – | – | < 100 | < 100
